Measured values: patent US20180371044A1, “PEPTIDOMIMETIC MACROCYCLES” (Aileron Therapeutics, Inc., priority 2015, published 2018)
pEC50: −log10 of the molar value. Where a SMILES comes first, the peptide text is derived from it. Bridges are numbered along the chain shown (N, C = ends). [ ]: non-standard residue; d: D form. S5 = C=CCCC[C@](C)(N)C(=O)O; Nle = CCCC[C@H](N)C(=O)O

Legend:
[1] = target: T1, human GHRH receptor (hGHRHR) (Homo sapiens, UniProt Q02643); test: GHRHR agonism measured by cAMP (HTRF) in human 293 cells expressing hGHRHR; assay type: cell-based; details: 30 min at RT;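 also: receptor expressed transiently or stably, cells stimulated in serum-free medium, EC50 from a non-linear dose-response fit, maximal response defined by reference GHRH stimulation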
T1 construct: expressed in transfected cells; host or cells: Human 293 cells
T1 sequence (Q02643 23-423): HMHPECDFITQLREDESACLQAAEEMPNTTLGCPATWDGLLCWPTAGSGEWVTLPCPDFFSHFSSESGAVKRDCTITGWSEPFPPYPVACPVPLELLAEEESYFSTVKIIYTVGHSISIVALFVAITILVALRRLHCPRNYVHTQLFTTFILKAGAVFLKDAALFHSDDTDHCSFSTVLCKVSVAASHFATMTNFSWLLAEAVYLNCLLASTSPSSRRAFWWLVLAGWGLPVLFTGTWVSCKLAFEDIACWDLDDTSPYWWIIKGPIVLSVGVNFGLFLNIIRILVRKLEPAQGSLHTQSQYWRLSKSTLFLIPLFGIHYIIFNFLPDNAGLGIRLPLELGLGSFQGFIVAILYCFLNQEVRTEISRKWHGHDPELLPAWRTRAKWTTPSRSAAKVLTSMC

[2] = target: T2, GHRHR (Homo sapiens, UniProt Q02643); test: DiscoverX cAMP Hunter eXpress GHRHR CHO-K1 GPCR assay; assay type: cell-based
T2 construct: host or cells: CHO-K1 (cAMP Hunter eXpress GHRHR CHO-K1 GPCR assay kit)
T2 sequence (Q02643 23-423): T1 sequence (Q02643 23-423)
Experimental: DiscoverX cAmP Hunter eXpress VIPRI CHO-K1 GPCR and GHRHR CHO-K1 GPCR assays kits were used. […] Following ligand stimulation, the functional status of the GPCR is monitored by measuring cellular cAMP levels using a homogeneous, gain of signal competitive immunoassay based on Enzyme Fragment Complementation (EFC). The amount of EFC is measured by analysis with a fluorescent plate reader.
DiscoverX™ cAmP Hunter eXpress VIPR1 CHO-K1 GPCR and GHRHR CHO-K1 GPCR assay kits were used. On the day before the assay, the DiscoverX™ cell lines were defrosted, plated into 384 well plates and allowed to incubate overnight. All the samples were diluted to 2 mM using 100% DMSO. The vials were sonicated and centrifuged to assure all peptides went into solution. The final volumes were small, 80-200 μl. An 80% purity and peptide content was assumed for all samples and dilutions were based on the molecular weights. On the day of the assay, the samples were diluted to 200 μM in water and then to 4 μM in DiscoverX™ assay buffer (supplemented with 0.1% BSA). Serial dilutions were performed on assay day, 16 dilutions from 1000 nM were run side by side in duplicate for each peptide for study. The assays were performed in the 384 well plates with the assistance of a CyBio™ Bi-Well 384 channel liquid handling robot. The samples were analyzed on a Tecan™ Ultra Evolution plate reader according to DiscoverX™ guidelines. The EC50 values were determined using GraphPad™ Prism software. The EC50 value is defined as the concentration of agonist that provokes a response halfway between the baseline and maximum response. […] The selectivity value is the concentration of agonist that provokes a response halfway between the baseline and maximum response in VIPR1 CHO-K1 cells divided by the concentration of agonist that provokes a response halfway between the baseline and maximum response in GHRHR CHO-K1 cells.

[3] = target: T3, VIPR1 (Vasointestinal Peptide Receptor 1) (Homo sapiens, UniProt P32241); test: DiscoverX cAMP Hunter eXpress VIPR1 CHO-K1 GPCR assay; assay type: cell-based; details: VIPR1 CHO-K1 cells
T3 construct: host or cells: CHO-K1 (cAMP Hunter eXpress VIPR1 CHO-K1 GPCR assay kit)
T3 sequence (P32241 31-457): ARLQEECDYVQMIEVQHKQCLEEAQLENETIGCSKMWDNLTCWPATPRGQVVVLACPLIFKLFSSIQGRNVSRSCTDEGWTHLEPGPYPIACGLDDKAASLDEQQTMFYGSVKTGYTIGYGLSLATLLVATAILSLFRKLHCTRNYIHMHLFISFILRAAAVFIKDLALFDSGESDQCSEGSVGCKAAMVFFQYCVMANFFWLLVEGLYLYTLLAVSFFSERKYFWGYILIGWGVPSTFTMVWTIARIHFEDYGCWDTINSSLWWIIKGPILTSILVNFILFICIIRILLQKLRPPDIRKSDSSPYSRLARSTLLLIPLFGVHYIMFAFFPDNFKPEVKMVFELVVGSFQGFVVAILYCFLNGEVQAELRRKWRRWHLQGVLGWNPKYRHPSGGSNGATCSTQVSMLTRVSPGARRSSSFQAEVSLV
Source text: DiscoverX cAmP Hunter eXpress VIPRI CHO-K1 GPCR and GHRHR CHO-K1 GPCR assays kits were used. The DiscoverX kits contain naturally coupled GPCR cell lines designed to detect GPCR signaling through second messenger activation. This signaling involves a membrane bound enzyme called adenylate cyclase. […] receptors modulate cAMP by either inhibiting or stimulating adenylate cyclase, respectively. The DiscoverX cell lines included in the kits utilize the natural coupling status of the GPCR to monitor activation of […] receptors. Following ligand stimulation, the functional status of the GPCR is monitored by measuring cellular cAMP levels using a homogeneous, gain of signal competitive immunoassay based on Enzyme Fragment Complementation (EFC). The amount of EFC is measured by analysis with a fluorescent plate reader.
On the day before the assay, the DiscoverX cell lines were defrosted, plated into 384 well plates and allowed to incubate overnight. All the samples were diluted to 2 mM using 100% DMSO. The vials were sonicated and centrifuged to assure all peptides went into solution. The final volumes were small, 80-200 μl. An 80% purity and peptide content was assumed for all samples and dilutions were based on the molecular weights. On the day of the assay, the samples were diluted to 200 μM in water and then to 4 μM in DiscoverX assay buffer (supplemented with 0.1% BSA). Serial dilutions were performed on assay day, 16 dilutions from 1000 nM were run side by side in duplicate for each peptide for study. The assays were performed in the 384 well plates with the assistance of a CyBio Bi-Well 384 channel liquid handling robot. The samples were analyzed on a Tecan Ultra Evolution plate reader according to DiscoverX guidelines. The EC50 values were determined using GraphPad Prism software. The EC50 value is defined as the concentration of agonist that provokes a response halfway between the baseline and maximum response.
DiscoverX™ cAmP Hunter eXpress VIPR1 CHO-K1 GPCR and GHRHR CHO-K1 GPCR assay kits were used. On the day before the assay, the DiscoverX™ cell lines were defrosted, plated into 384 well plates and allowed to incubate overnight. All the samples were diluted to 2 mM using 100% DMSO. The vials were sonicated and centrifuged to assure all peptides went into solution. The final volumes were small, 80-200 μl. An 80% purity and peptide content was assumed for all samples and dilutions were based on the molecular weights. On the day of the assay, the samples were diluted to 200 μM in water and then to 4 μM in DiscoverX™ assay buffer (supplemented with 0.1% BSA). Serial dilutions were performed on assay day, 16 dilutions from 1000 nM were run side by side in duplicate for each peptide for study. The assays were performed in the 384 well plates with the assistance of a CyBio™ Bi-Well 384 channel liquid handling robot. The samples were analyzed on a Tecan™ Ultra Evolution plate reader according to DiscoverX™ guidelines. The EC50 values were determined using GraphPad™ Prism software. The EC50 value is defined as the concentration of agonist that provokes a response halfway between the baseline and maximum response. (+=>25 nM; ++=>10-25 nM; +++=>1-10 nM; ++++=>0.1-1 nM; +++++=<0.1 nM). […]

[4] = Solubility by measuring turbidity (OD600) in human plasma; assay type: physicochemical
Experimental: In some embodiments, a peptidomimetic macrocycle can be prepared based on solubility of the polypeptide, for example if the prepared peptidomimetic macrocycle is determined to be soluble based on visual examination of the turbidity of a solution of the polypeptide. In some embodiments, an aqueous solubility of the peptidomimetic macrocycle is determined by evaluating the turbidity of a solution comprising the peptidomimetic macrocycle. In some embodiments, a plasma solubility of the peptidomimetic macrocycle is determined by evaluating the turbidity of a solution comprising the peptidomimetic macrocycle.
Increasing amounts of SP-3 and SP-133 were added to human plasma. The OD600 of each of the solutions was then measured.

[5] = Plasma compatibility; assay type: physicochemical
Experimental: The plasma compatibility of exemplary peptidomimetic macrocycles was also determined. Peptidomimetic macrocycles with a plasma compatability value (PC) that is greater than 0.1 were determined as being plasma compatible.

pEC50 [1]: 8.00 to 9.00 | Selectivity ([2]; EC50 in VIPR1 CHO-K1 cells divided by EC50 in GHRHR CHO-K1 cells): +++++ (+++++=>50) | pEC50 ([2]; GHRHR CHO-K1 cells, cAMP): 9.00 to 10.00 | pEC50 [3]: 7.60 to 8.00 | OD600 ([4]; 7 mg/mL): 0.8 | OD600 ([4]; 10 mg/mL): 1.0 | OD600 ([4]; 12 mg/mL): 1.2 | OD600 ([4]; 16 mg/mL): 1.2 | OD600 ([4]; 21 mg/mL): 1.4 | OD600 ([4]; 27 mg/mL): 1.6 | OD600 ([4]; 35 mg/mL): 1.6 | OD600 ([4]; 46 mg/mL): 1.7 | OD600 ([4]; 59 mg/mL): 1.8 | OD600 ([4]; 77 mg/mL): 1.7 | OD600 ([4]; 100 mg/mL): 1.5 | Plasma Compatability [5]: 0.9 mg/mL
Compound: CCCC[C@H](NC(=O)[C@@H](NC(=O)[C@]1(C)CCCC=CCCC[C@](C)(NC(=O)[C@H](CCCNC(=N)N)NC(=O)[C@H](C)NC(=O)[C@H](CO)NC(=O)[C@H](CC(C)C)NC(=O)[C@H](CCC(N)=O)NC(=O)CNC(=O)[C@H](CC(C)C)NC(=O)[C@@H](NC(=O)[C@H](CCCCN)NC(=O)[C@H](CCCNC(=N)N)NC(=O)[C@H](Cc2ccc(O)cc2)NC(=O)[C@H](CO)NC(=O)[C@]2(C)CCCC=CCCC[C@](C)(NC(=O)[C@H](CC(=O)O)NC(=O)[C@@H](C)NC(=O)[C@@H](N)Cc3ccc(O)cc3)C(=O)N[C@@H]([C@@H](C)CC)C(=O)N[C@@H](Cc3ccccc3)C(=O)N[C@@H]([C@@H](C)O)C(=O)N2)C(C)C)C(=O)N[C@@H](CC(C)C)C(=O)N[C@@H](CC(C)C)C(=O)N[C@@H](CCC(N)=O)C(=O)N1)[C@@H](C)CC)C(=O)N[C@@H](CO)C(=O)N[C@@H](CCCNC(=N)N)C(N)=O [SP-3] (H-Y[dA]D[S5]IFT[S5]SYRKVLGQLSAR[S5]LLQ[S5]I[Nle]SR-NH2; staple 4-8, 21-25)
